In data set [1] the target is T1, ACAT derived from human macrophage (Homo sapiens, UniProt P35610).
T1 construct: Using, as an enzyme source, microsomal fractions prepared in the manner described below under Preparation of Microsome from U937 cells; endogenous in cells; host or cells: U937 cells differentiated with TPA, microsomal fraction
T1 sequence (P35610 1-550): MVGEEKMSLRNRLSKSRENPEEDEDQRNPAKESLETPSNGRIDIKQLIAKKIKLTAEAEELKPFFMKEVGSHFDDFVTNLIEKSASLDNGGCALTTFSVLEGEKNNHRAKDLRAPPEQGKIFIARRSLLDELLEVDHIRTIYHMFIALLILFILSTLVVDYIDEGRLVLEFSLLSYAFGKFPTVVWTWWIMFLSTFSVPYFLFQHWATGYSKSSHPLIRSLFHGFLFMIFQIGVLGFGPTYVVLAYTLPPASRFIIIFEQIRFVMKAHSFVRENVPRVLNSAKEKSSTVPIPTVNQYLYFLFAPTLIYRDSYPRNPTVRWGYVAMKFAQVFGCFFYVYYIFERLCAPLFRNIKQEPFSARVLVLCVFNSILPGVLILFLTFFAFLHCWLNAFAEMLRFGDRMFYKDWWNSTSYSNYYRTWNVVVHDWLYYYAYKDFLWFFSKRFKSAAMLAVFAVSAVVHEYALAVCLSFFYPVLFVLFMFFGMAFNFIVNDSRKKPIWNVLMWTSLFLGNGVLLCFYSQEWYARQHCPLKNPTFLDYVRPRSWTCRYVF
Description: Inhibitory activity against ACAT derived from human macrophage (microsomes of TPA-differentiated U937 cells). Particulars: for Selectivity: Table 1, rat liver ACAT IC50 / human macrophage ACAT IC50; for IC50: human macrophage (U937/TPA) microsome, pH 7.4, 37° C., 30 minutes. In kind it is biochemical. Here is the method: Inhibitory activity against ACAT derived from human macrophage
(§1) Using, as an enzyme source, microsomal fractions prepared in the manner described below under Preparation of Microsome from U937 cells [human monocyte-derived cells known to differentiate into macrophages by the addition of TPA (12-O-tetradecanoylphorbol 13-acetate)] differentiated with TPA, the inhibitory activity against ACAT in the microsome fractions was determined as in the following. The compound of the present invention was dissolved in dimethyl sulfoxide and used as a sample solution. [1-^14 C] […] Ethanol (1 ml) was added to stop the reaction, and n-hexane (4.5 ml) was added. The reaction mixture was centrifuged at 2,000 rpm for 2 minutes and the upper n-hexane layer was separated and recovered, whereby cholesterol oleate (reaction product) was extracted. n-Hexane was evaporated with a nitrogen gas and the residue was re-dissolved in n-hexane (50 μl), which was used as a sample for thin-layer chromatography. […] After developing, the spot of cholesterol oleate was colored with iodine. The spot was cut out and dissolved in a xylene scintillator (Aquasol-2, Daiichi Pure Chemicals Co., Ltd.). The amount of cholesterol oleate was determined with a liquid scintillation counter.
The cells thus scraped and the culture solution were centrifuged at 3,000 rpm for 5 minutes, and the cell fractions obtained as precipitate were once freezed at -70° C. and preserved. The cells preserved at -70° C. were thawed and homogenized at 4° C. in a Teflon homogenizer. The homogenate was centrifuged at 12,000 g for 15 minutes. The precipitate fractions containing nuclea and mitochondria were removed and the obtained supernatant was further centrifuged at 100,000 g for 60 minutes. The supernatant was discarded, and the obtained precipitate fractions were suspended in 150 mM potassium phosphate buffer (pH 7.4) and used as a microsomal fraction.

Data set [2] has as its system ACAT derived from rat liver. The data set can be described thus: Inhibitory activity against ACAT derived from rat liver microsome. It counts as biochemical. The settings on record: pH 7.4, 37° C., 30 minutes. On the procedure:
Inhibitory activity against ACAT derived from rat liver microsome
as §1, with “source, the” for “source,”, “prepared from rat liver” for “prepared”, “of Microsome,” for “of Microsome from U937 cells [human monocyte-derived cells known to differentiate into macrophages by the addition of TPA (12-O-tetradecanoylphorbol 13-acetate)] differentiated with TPA,”, “re-dissolved dissolved” for “re-dissolved”, “determined using” for “determined with”
The liver was removed from a fasted rat and thoroughly perfused with 0.25M sucrose solution. The liver was weighed, minced with scissors or razor and placed in a Teflon homogenizer. The liver was homogenized with 9 volumes [9 ml per g (wet weight) of liver] of 0.25M sucrose solution or 50 mM Tris-HCl buffer (pH 7.5) containing 0.25M sucrose and 5 mM MgCl2. The homogenate was centrifuged at 8,000-10,000 g for 10-15 minutes. The obtained supernatant was centrifuged at 105,000 g for 60-90 minutes. The sediment obtained from this centrifugation was suspended in 150 mM potassium phosphate buffer (pH 7.4) to give a microsomal fraction.

Data set [3] is described as follows: Reduction of cholesterol in blood of cholesterol-loaded rats. It counts as in vivo, Male slc:SD (SPF) rats. Particulars: serum total cholesterol; 90 mg/kg/day orally, five days; average of 8 rats; control taken as 100%. The source says: Reduction of cholesterol in blood of rats
Male slc:SD (SPF) rats (4 weeks of age weighing 70-90 g, Japan SLC Inc.) were randomly divided into 8 per group and bred for 3 days on a normal diet (solid diet for test animals, MF, manufactured by Oriental Yeast CO., LTD.). Then, the aforementioned diet supplemented with 5% cholesterol, 10% olive oil and 0.5% cholic acid was freely fed for 10 days. During the last five days, the test compound (Compounds 3-6, 8, 11 and 12) suspended in 0.5% aqueous methylcellulose solution was forcibly administered orally once a day in a dose of 10 ml/kg which contains 90 mg/kg/day of the test compound (total dose of the test compound being 450 mg/kg). The rats were fasted for 16 hours after the final administration and etherized. The blood was taken from the abdominal aorta, and serum was separated by centrifugation to determine the total cholesterol content in the serum. The control group was administered with 0.5% aqueous methylcellulose solution instead of the test compound suspended in 0.5% aqueous methylcellulose solution.
* is an average of 8 rats per group based on the cholesterol content in
blood of control which was taken as 100%.

The nature of data set [4]: Acute toxicity, oral, mice. It counts as in vivo, Male slc:ICR mice. On the procedure:
Male slc:ICR mice (4 weeks of age, Japan SLC Inc.) were bred for 7 days on a normal diet (solid diet for test animals, Labo MR stock-SLC, manufactured by Japan SLC Inc.). Then, the mice were fasted for 16 hours and divided into 5 per group. The mice were forcibly administered orally with the test compound (Compounds 4, 5 and 9-12) dissolved in corn oil. The mice were further bred on a normal diet for 14 days to observe acute toxicity.

SMILES strings stand for the structures.

In data set [1], `CCC=CCC=CCC=CCC=CCC=CCCCC(=O)Nc1c(F)cc(F)cc1F` [Compound 3, N-(2,4,6-trifluorophenyl)-5,8,11,14,17-eicosapentaenamide] showed a Selectivity greater than 1852 and an IC50 of 0.27 µM. Also, the IC50 in data set [2] was greater than 500 µM. The “Reduction of cholesterol in cholesterol-loaded rats, %*” value (shortened to “Reduction of cholesterol … %*”) in data set [3] is on record as 71%.

With `CCC=CCC=CCC=CCC=CCC=CCC=CCCC(=O)Nc1c(F)cc(F)cc1F` [Compound 4, N-(2,4,6-trifluorophenyl)-4,7,10,13,16,19-docosahexaenamide], in data set [1], the Selectivity is reported as greater than 806 and it took 0.62 µM to reach half-maximal inhibition (IC50). This compound also registered an IC50 in data set [2] greater than 500 µM. In addition, the “Reduction of cholesterol … %*” value in data set [3] came out at 59%. Moreover, the minimum lethal dose in data set [4] (mouse, in vivo, po, 20160 min) was ≥ 2,000 mg/kg.

`CCC=CCC=CCC=CCC=CCC=CCCCC(=O)Nc1c(C)cc(C)cc1C` [Compound 5, N-(2,4,6-trimethylphenyl)-5,8,11,14,17-eicosapentaenamide]: the Selectivity in data set [1] is 47.9. Besides, the IC50 in data set [1] stood at 0.9 µM; in data set [2], 43.1 µM. Besides, the “Reduction of cholesterol … %*” value in data set [3] was 57%. Moreover, the minimum lethal dose in data set [4] (single oral administration in corn oil, mice, 14 days observation) is ≥ 2,000 mg/kg.

In data set [1], `CCC=CCC=CCC=CCC=CCC=CCC=CCCC(=O)Nc1c(C)cc(C)cc1C` [Compound 6, N-(2,4,6-trimethylphenyl)-4,7,10,13,16,19-docosahexaenamide] registered a Selectivity greater than 3333 and an IC50 of 0.15 µM. The compound also yielded an IC50 in data set [2] greater than 500 µM. The “Reduction of cholesterol … %*” value in data set [3] was 68%.

Regarding `CCC=CCC=CCC=CCC=CCC=CCC=CCCC(=O)Nc1c(C)cccc1C` [Compound 8, N-(2,6-dimethylphenyl)-4,7,10,13,16,19-docosahexaenamide], in data set [1], the Selectivity was found to be 264 and the IC50 was determined as 0.28 µM. Moreover, half-maximal inhibition in data set [2] (IC50) was put at 73.9 µM. Further, in data set [3], the “Reduction of cholesterol … %*” value is on record as 77%.

Take `CCC=CCC=CCC=CCC=CCC=CCCCC(=O)Nc1c(C(C)C)cccc1C(C)C` [Compound 11, N-(2,6-diisopropylphenyl)-5,8,11,14,17-eicosapentaenamide]: the Selectivity in data set [1] is given as 247. Besides, the IC50 in data set [1] was 0.0097 µM; in data set [2] it was 2.4 µM. Also, in data set [3], the “Reduction of cholesterol … %*” value stood at 78%.

With `CCC=CCC=CCC=CCC=CCC=CCC=CCCC(=O)Nc1c(C(C)C)cccc1C(C)C` [Compound 12, N-(2,6-diisopropylphenyl)-4,7,10,13,16,19-docosahexaenamide], the IC50 in data set [2] turned out to be 52.7 µM. In addition, in data set [3], the “Reduction of cholesterol … %*” value amounted to 64%.

Broadly, the IC50 is the concentration that inhibits the measured activity by half.

Source of the values: US5801178A, “Aniline derivative having polyunsaturated fatty acid residue and use thereof” (Nippon Shoji Kaish Ltd., priority 1995, dated 1998).
